What was measured:
[1] = target: Human immunodeficiency virus type 1 reverse transcriptase (Human immunodeficiency virus 1, UniProt Q72547); assay: Inhibition of HIV1 reverse transcriptase using r(A)350 template and d(T)16 primer as substrate preincubated for 1 hr before adding substrate by PicoGreen EnzChek Reverse Transcriptase Assay
[2] = test system: MT2; assay: Cytotoxicity against human MT2 cells assessed as inhibition of cell growth; type: toxicity, cell-based
[3] = test system: Human immunodeficiency virus 1; assay: Anti-viral activity against wild type HIV1 strain IIIB infected in human MT2 cells assessed as protection of cells from infection; type: functional, organism-based; conditions: Human immunodeficiency virus 1, IIIB
[4] = Therapeutic index, ratio of CC50 for cytotoxicity against human MT2 cells to EC50 for antiviral activity against wild type HIV1 strain IIIB infected in human MT2 cells assessed as protection of cells from infection; type: toxicity, cell-based; conditions: read-out: TI

SMILES	IC50 [1]	CC50 [2]	EC50 [3]	selectivity ratio [4]
C=CC(=O)Nc1cccc(COc2cc(Cl)ccc2Oc2cc(Cl)cc(C#N)c2)c1	900 nM	19000 nM	–	–
CN(CCOc1ccc(Cl)c(Oc2cc(Cl)cc(C#N)c2)c1)C(=O)CCl	1200 nM	1300 nM	–	–
C=CC(=O)N(C)CCc1ccc(Cl)c(Oc2cc(Cl)cc(C#N)c2)c1	500 nM	50000 nM	6200 nM	–
C=CC(=O)N(C)CCOc1ccccc1Oc1cccc2cc(C#N)ccc12	< 10 nM	4000 nM	1 nM	–
CN(CCc1ccc(Cl)c(Oc2cc(Cl)cc(C#N)c2)c1)C(=O)CCl	4400 nM	470 nM	–	–
CN(C)C(=O)CCOc1ccccc1Oc1cccn2cc(C#N)cc12	20 nM	> 100000 nM	36 nM	–
N#Cc1cc(Cl)cc(Oc2ccc(Cl)cc2OCCc2cccc(S(=O)(=O)F)c2)c1	150 nM	70000 nM	45000 nM	–
C=CC(=O)N(C)CCOc1ccccc1Oc1cccn2cc(C#N)cc12	< 10 nM	8800 nM	3 nM	–
C=CC(=O)N(C)CCOc1cc(Cl)ccc1Oc1cccc2cc(C#N)ccc12	25 nM	16000 nM	17 nM	–
N#Cc1ccc2c(Oc3ccccc3OCCC(=O)N3CCCC3)cccc2c1	20 nM	20000 nM	14 nM	–
C=CC(=O)Nc1cccc(CCOc2cc(Cl)ccc2Oc2cc(Cl)cc(C#N)c2)c1	60 nM	17000 nM	3600 nM	–
N#Cc1cc(Cl)cc(Oc2ccc(Cl)cc2OCCc2ccccc2)c1	60 nM	> 100000 nM	3100 nM	–
CN(C)C(=O)CCOc1ccccc1Oc1cccc2cc(C#N)ccc12	20 nM	33000 nM	3 nM	–
C=CC(=O)n1c(=O)n(CCOc2ccccc2Oc2cccc3cc(C#N)ccc23)c2ccccc21	< 5 nM	4500 nM	1 nM	9000
C=CS(=O)(=O)c1cccc(CCOc2cc(Cl)ccc2Oc2cc(Cl)cc(C#N)c2)c1	9000 nM	16000 nM	–	–
C=CS(=O)(=O)CCc1ccc(Cl)c(Oc2cc(Cl)cc(C#N)c2)c1	100000 nM	6000 nM	–	–
C=CC(=O)NCCOc1cc(Cl)ccc1Oc1cc(Cl)cc(C#N)c1	60000 nM	42000 nM	12500 nM	–

SMILES	IC50 [1]	CC50 [2]	EC50 [3]	selectivity ratio [4]
C=CC(=O)N(C)CCOc1ccc(Cl)c(Oc2cccc3cc(C#N)ccc23)c1	< 10 nM	25000 nM	8500 nM	–
C=CC(=O)n1c(=O)n(CCOc2cc(Cl)ccc2Oc2cc(Cl)cc(C#N)c2)c2ccccc21	150 nM	8000 nM	470 nM	–
C=CC(=O)N(C)CCOc1ccccc1Oc1cc(Cl)cn2cc(C#N)cc12	20 nM	33000 nM	48 nM	–
N#Cc1cc2c(Oc3ccccc3OCCC(=O)NCC(F)F)cccn2c1	1300 nM	> 100000 nM	2100 nM	–
C=CC(=O)N(C)CCOc1ccc(Cl)c(Oc2cc(Cl)cc(C#N)c2)c1	750 nM	17000 nM	10000 nM	–
N#Cc1cc(Cl)cc(Oc2ccc(Cl)cc2OCc2ccccc2)c1	1300 nM	> 100000 nM	41000 nM	–
C=CC(=O)N(C)CCOc1cc(Cl)ccc1Oc1cc(Cl)cc(C#N)c1	60 nM	27000 nM	400 nM	–
N#Cc1cc2c(Oc3ccccc3OCCC(=O)N3CCOCC3)cccn2c1	60 nM	> 100000 nM	190 nM	–
C=CC(=O)N(C)CCOc1cc(Cl)ccc1Oc1cccn2cc(C#N)cc12	26 nM	30000 nM	28 nM	–
N#Cc1cc2c(Oc3ccccc3OCCC(=O)N3CCCC3)cccn2c1	20 nM	> 100000 nM	17 nM	–
C=CC(=O)NCCc1ccc(Cl)c(Oc2cc(Cl)cc(C#N)c2)c1	400 nM	29000 nM	3100 nM	–
C=CC(=O)N(C)CCOc1ccc(Cl)c(Oc2cccn3cc(C#N)cc23)c1	70 nM	31000 nM	3900 nM	–
N#Cc1cc(Cl)cc(Oc2cc(OCCNC(=O)CCl)ccc2Cl)c1	2750 nM	5800 nM	–	–
N#Cc1cc(Cl)cc(Oc2ccc(Cl)cc2OCCn2cc(Cl)c(=O)[nH]c2=O)c1	–	–	17 nM	–
C=CC(=O)NCCOc1ccc(Cl)c(Oc2cc(Cl)cc(C#N)c2)c1	1100 nM	32000 nM	–	–
C=CS(=O)(=O)CCOc1ccc(Cl)c(Oc2cc(Cl)cc(C#N)c2)c1	8000 nM	7500 nM	5700 nM	–
N#Cc1cc(Cl)cc(Oc2cc(CCNC(=O)CCl)ccc2Cl)c1	750 nM	2700 nM	–	–

— ChEMBL document CHEMBL5634149, “Covalent and noncovalent strategies for targeting Lys102 in HIV-1 reverse transcriptase” (Eur J Med Chem, 2023)
